# System: NG108-15 cells (a neuroblastoma-glioma hybrid cell line)
# Assay: In vitro bioassay in NG108-15 cells stimulated by prostaglandin E1
# Format: cell-based
# Conditions: read-out: IC50 in NG108-15 cells stimulated by PGE1
smiles,measurement,value
CC(C)C[C@H](NC(=O)[C@H](Cc1ccccc1)NC(=O)CNC(=O)[C@@H](C)NC(=O)[C@@H](N)Cc1ccc(O)cc1)C(=O)NCCNC(=O)[C@H](CC(C)C)NC(=O)[C@H](Cc1ccccc1)NC(=O)CNC(=O)[C@@H](C)NC(=O)[C@@H](N)Cc1ccc(O)cc1 [DPE2],IC50,~0.15 nM

# — patent US4468383A, “Dimeric enkephalins” (The United States of America as represented by the …, priority 1982, dated 1984)
